According to US20240279233A1, “MACROCYCLIC TAK1 INHIBITORS” (Aqilion AB, priority 2021, published 2024):
Where two headings read alike, the source gives them in different places.

Molecular target: human recombinant TAK1-TAB1 Kinase (TAK1 (1-303) and TAB1 (437-end)) (Homo sapiens (Human), UniProt O43318)
Assay: TAK1 biochemical ADP-Glo kinase assay
Conditions: MBP substrate
Procedure, shortened: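 Inhibition of human recombinant TAK1-TAB1 kinase was measured with a Promega ADP-Glo luminescence assay in 384-well plates. Compounds in 5% DMSO were pre-incubated 10 min with 2 μl TAK1-TAB1 (7.5 ng/μl) in buffer of Tris pH 7.5, MgCl2, DTT and BSA. MBP substrate and ATP were then added for 1 hour at room temperature. ADP-Glo reagent and kinase detection substrate followed, luminescence was read on an Envision, and IC50 came from non-linear regression.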

[1] = 10 μM ATP, read-out: TAK1 Mean IC50 (nM) @ 10 μM ATP
[2] = 1 mM ATP, read-out: TAK1 Mean IC50 (nM) @ 1 mM ATP

human recombinant TAK1-TAB1 Kinase (TAK1 (1-303) and TAB1 (437-end)), sequence (O43318 other isoform, or with tags, fused parts or gaps): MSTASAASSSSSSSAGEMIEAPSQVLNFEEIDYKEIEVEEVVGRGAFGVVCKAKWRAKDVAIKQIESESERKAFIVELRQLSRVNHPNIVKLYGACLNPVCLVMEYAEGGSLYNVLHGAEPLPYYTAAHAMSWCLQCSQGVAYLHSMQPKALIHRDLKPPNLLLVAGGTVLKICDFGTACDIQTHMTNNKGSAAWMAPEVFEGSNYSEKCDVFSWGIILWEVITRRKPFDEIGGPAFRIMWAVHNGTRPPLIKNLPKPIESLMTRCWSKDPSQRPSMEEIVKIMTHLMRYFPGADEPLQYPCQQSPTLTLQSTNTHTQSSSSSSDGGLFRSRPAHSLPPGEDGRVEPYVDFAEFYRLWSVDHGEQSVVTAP

SMILES | IC50 [1] [nM] | IC50 [2] [nM]
C[C@H]1CCCCNC(=O)c2cccc(c2)C(=O)/N=C2\Nc3cncc(C(=O)N(C)C)c3N21 [Example 145, (S,E)-N,N,11-trimethyl-3,5-dioxo-1^2,1^3-dihydro-1^1H-2,6-diaza-1(2,1)-imidazo[4,5-c]pyridina-4(1,3)-benzenacycloundecaphane-1^7-carboxamide] | 10 | –
CC1CCCCNC(=O)c2cccc(c2)C(=O)/N=C2\Nc3cccc(C(=O)N4CCOC[C@H]4C)c3N21 (single isomer, unassigned) [Example 75] | 11 | –
CC1CCCCNC(=O)c2cccc(c2)C(=O)/N=C2\Nc3cccc(C(=O)N(C)C4CC(O)C4)c3N21 (centres unmarked) [Example 41, (E)-N-(3-hydroxycyclobutyl)-N,11-dimethyl-3,5-dioxo-1^2,1^3-dihydro-1^1H-2,6-diaza-1(2,1)-benzo[d]imidazola-4(1,3)-benzenacycloundecaphane-1^7-carboxamide] | 3 | –
CN(C)C(=O)c1cccc2c1N1/C(=N/C(=O)c3cccc(c3)C(=O)NCCCCC13CC3)N2 [Example 131, (E)-N,N-dimethyl-3′,5′-dioxospiro[cyclopropane-1,11′-2,6-diaza-1(2,1)-benzo[d]imidazola-4(1,3)-benzenacycloundecaphane]-7′-carboxamide] | 5 | 13
[2H]C([2H])([2H])N(C(=O)c1cccc2c1N1/C(=N/C(=O)c3cccc(c3)C(=O)NCCCC[C@@H]1C)N2)C([2H])([2H])[2H] [Example 118, (S,E)-11-methyl-N,N-bis(methyl-d3)-3,5-dioxo-1^2,1^3-dihydro-1^1H-2,6-diaza-1(2,1)-benzo[d]imidazola-4(1,3)-benzenacycloundecaphane-1^7-carboxamide] | – | 15
C[C@H]1CCCCNC(=O)c2cccc(c2)C(=O)/N=C2\Nc3cccc(C(=O)N4CC5(C4)CC(F)(F)CO5)c3N21 [Example 117, (S,E)-1^7-(7,7-difluoro-5-oxa-2-azaspiro[3.4]octane-2-carbonyl)-11-methyl-1^2,1^3-dihydro-1^1H-2,6-diaza-1(2,1)-benzo[d]imidazola-4(1,3)-benzenacycloundecaphane-3,5-dione] | – | 4
COC1CN(C(=O)c2cccc3c2N2/C(=N/C(=O)c4cccc(c4)C(=O)NCCCCC2C)N3)C1 (single isomer, unassigned) [Example 82, (E)-1^7-(3-methoxyazetidine-1-carbonyl)-11-methyl-1^2,1^3-dihydro-1^1H-2,6-diaza-1(2,1)-benzo[d]imidazola-4(1,3)-benzenacycloundecaphane-3,5-dione] | 7 | –
COC(=O)CN(C)C(=O)c1cccc2c1N1/C(=N/C(=O)c3cccc(c3)C(=O)NCCCCC1C)N2 (centres unmarked) [Example 38, methyl (E)-N-methyl-N-(11-methyl-3,5-dioxo-1^2,1^3-dihydro-1^1H-2,6-diaza-1(2,1)-benzo[d]imidazola-4(1,3)-benzenacycloundecaphane-1^7-carbonyl)glycinate] | 4 | –
CC1CCCCNC(=O)c2cccc(c2)C(=O)/N=C2\Nc3cccc(N4CCN(C5CC5)C4=O)c3N21 (single isomer, unassigned) [Example 142, (E)-1^7-(3-cyclopropyl-2-oxoimidazolidin-1-yl)-11-methyl-1^2,1^3-dihydro-1H-2,6-diaza-1(2,1)-benzo[d]imidazola-4(1,3)-benzenacycloundecaphane-3,5-dione] | 7 | 8
CC1CCCCNC(=O)c2cccc(c2)C(=O)/N=C2\Nc3cccc(N4CCN(C5COC5)C4=O)c3N21 (single isomer, unassigned) [Example 143, (E)-11-methyl-1^7-(3-(oxetan-3-yl)-2-oxoimidazolidin-1-yl)-1^2,1^3-dihydro-1^1H-2,6-diaza-1(2,1)-benzo[d]imidazola-4(1,3)-benzenacycloundecaphane-3,5-dione] | – | 14
C[C@H]1CCCCNC(=O)c2cccc(c2)C(=O)/N=C2\Nc3cccc(C(=O)N4C[C@H]5C[C@@H]4CO5)c3N21 [Example 112, (S,E)-1^7-((1R,4R)-2-oxa-5-azabicyclo[2.2.1]heptane-5-carbonyl)-11-methyl-1^2,1^3-dihydro-1^1H-2,6-diaza-1(2,1)-benzo[d]imidazola-4(1,3)-benzenacycloundecaphane-3,5-dione] | – | 8
C[C@H]1CCCCNC(=O)c2cccc(c2)C(=O)/N=C2\Nc3cccc(C(=O)N4CC5(CCCO5)C4)c3N21 [Example 116, (S,E)-11-methyl-1^7-(5-oxa-2-azaspiro[3.4]octane-2-carbonyl)-1^2,1^3-dihydro-1^1H-2,6-diaza-1(2,1)-benzo[d]imidazola-4(1,3)-benzenacycloundecaphane-3,5-dione] | – | 3
CC1CCCCNC(=O)c2nc(cs2)C(=O)/N=C2\Nc3cccc(C(=O)N(C)C)c3N21 (single isomer, unassigned) [Example 109, (1^2Z,4^2E)-N,N,5-trimethyl-2,11-dioxo-4^2,4^3-dihydro-4^1H-3,10-diaza-1(4,2)-thiazola-4(2,1)-benzo[d]imidazolacycloundecaphane-4^7-carboxamide] | – | 114
CN1CCN(Cc2ccc3c(c2)N/C2=N\C(=O)c4ccc(F)c(c4)C(=O)NCCCCCN23)CC1 [Example 103, (E)-4^4-fluoro-1^5-((4-methylpiperazin-1-yl)methyl)-1^2,1^3-dihydro-1^1H-2,6-diaza-1(2,1)-benzo[d]imidazola-4(1,3)-benzenacycloundecaphane-3,5-dione] | 3 | –

Other lines, results leading:

IC50 [1] [nM] | IC50 [2] [nM] | SMILES
– | 6 | CC1CCCCNC(=O)c2cccc(c2)C(=O)/N=C2\Nc3cccc(-c4ncnn4C(F)F)c3N21 (single isomer, unassigned) [Example 140, (E)-1^7-(1-(difluoromethyl)-1H-1,2,4-triazol-5-yl)-11-methyl-1^2,1^3-dihydro-1^1H-2,6-diaza-1(2,1)-benzo[d]imidazola-4(1,3)-benzenacycloundecaphane-3,5-dione]
5 | – | CCC1CCCCNC(=O)c2cccc(c2)C(=O)Nc2nc3cccc(C(=O)N(C)C)c3n21 (single isomer, unassigned) [Example 67, (E)-11-ethyl-N,N-dimethyl-3,5-dioxo-1^2,1^3-dihydro-1^1H-2,6-diaza-1(2,1)-benzo[d]imidazola-4(1,3)-benzenacycloundecaphane-1^7-carboxamide]
63 | – | CC1CCCNC(=O)c2cccc(c2)C(=O)Nc2nc3cccc(C(=O)N(C)C)c3n2C1 (centres unmarked) [Example 52, (E)-N,N,10-trimethyl-3,5-dioxo-1^2,1^3-dihydro-1^1H-2,6-diaza-1(2,1)-benzo[d]imidazola-4(1,3)-benzenacycloundecaphane-1^7-carboxamide]
5 | – | CC1CCCCNC(=O)c2cccc(c2)C(=O)/N=C2\Nc3cccc(C4CCCNC4=O)c3N21 (single isomer, unassigned) [Example 60, (E)-11-methyl-1^7-(2-oxopiperidin-3-yl)-1^2,1^3-dihydro-1^1H-2,6-diaza-1(2,1)-benzo[d]imidazola-4(1,3)-benzenacycloundecaphane-3,5-dione]
4 | – | CCC1CCCCNC(=O)c2cccc(c2)C(=O)Nc2nc3cccc(C(=O)N(C)C)c3n21 (single isomer, unassigned) [Example 68, (E)-11-ethyl-N,N-dimethyl-3,5-dioxo-1^2,1^3-dihydro-1^1H-2,6-diaza-1(2,1)-benzo[d]imidazola-4(1,3)-benzenacycloundecaphane-1^7-carboxamide]
3 | – | C[C@@H]1CCCCNC(=O)c2cccc(c2)C(=O)Nc2nc3cccc(-c4ncnn4C)c3n21 [Example 85, (R,E)-11-methyl-1^7-(1-methyl-1H-1,2,4-triazol-5-yl)-1^1H-2,6-diaza-1(2,1)-benzo[d]imidazola-4(1,3)-benzenacycloundecaphane-3,5-dione]
6 | – | COC1CN(C(=O)c2cccc3c2N2/C(=N/C(=O)c4cccc(c4)C(=O)NCCCCC2C)N3)C1 (single isomer, unassigned) [Example 81, (E)-1^7-(3-methoxyazetidine-1-carbonyl)-11-methyl-1^2,1^3-dihydro-1^1H-2,6-diaza-1(2,1)-benzo[d]imidazola-4(1,3)-benzenacycloundecaphane-3,5-dione]
5 | 19 | CC1CCCCNC(=O)c2cccc(c2)C(=O)Nc2nc3cccc(-c4nccn4C(F)F)c3n21 (single isomer, unassigned) [Example 91, (E)-1^7-(1-(difluoromethyl)-1H-imidazol-2-yl)-11-methyl-1^2,1^3-dihydro-1^1H-2,6-diaza-1(2,1)-benzo[d]imidazola-4(1,3)-benzenacycloundecaphane-3,5-dione]
5 | – | CC1CCCCNC(=O)c2cccc(c2)C(=O)/N=C2\Nc3cccc(C(=O)N(C)CC(F)F)c3N21 (single isomer, unassigned) [Example 73, (E)-N-(2,2-difluoroethyl)-N,11-dimethyl-3,5-dioxo-1^2,1^3-dihydro-1^1H-2,6-diaza-1(2,1)-benzo[d]imidazola-4(1,3)-benzenacycloundecaphane-1^7-carboxamide]
5 | 5 | C[C@H]1CCCCNC(=O)c2cccc(c2)C(=O)NC2Nc3cccc(N4CCCC4=O)c3N21 (stereo partly drawn) [Example 113, (S,E)-11-methyl-1^7-(2-oxopyrrolidin-1-yl)-1^2,1^3-dihydro-1^1H-2,6-diaza-1(2,1)-benzo[d]imidazola-4(1,3)-benzenacycloundecaphane-3,5-dione]
7 | – | C[C@H]1CCCCNC(=O)c2cccc(c2)C(=O)/N=C2\Nc3ccnc(C(=O)N(C)C)c3N21 [Example 128, (S,E)-N,N,11-trimethyl-3,5-dioxo-1^2,1^3-dihydro-1^1H-2,6-diaza-1(2,3)-imidazo[4,5-c]pyridina-4(1,3)-benzenacycloundecaphane-1^4-carboxamide]
